Each structure is given as a SMILES string.

The data set has as its system Streptococcus pneumonia. The following applies: 7 h, 5 %.

On to `C[S+](C)[O-]` [DMSO, dimethyl sulfoxide], for which the reduction in viability result is recorded as “approximately 25%”.

Source of the values: US8546373B2 (Biogenic Innovations, LLC, priority 2009, dated 2013).
